Laboratory results reported in US4820804A, “Analogs of [1,7-di-alanine, des-19-leucine]calcitonin” (Rorer Pharmaceutical Corporation, priority 1987, dated 1989).
Residues, ends and D or L forms follow the SMILES beside them. *: point of attachment. Propionyl = CCC(=O)*

How the values were obtained:
[1] = Independent determination of the potency of the standard salmon calcitonin; settings: standard used in the rat assay, independently determined
Procedure: The biological potency of [N-alpha-Propionyl-1,7-Di-Ala,Des-19-Leu] salmon calcitonin was determined by comparing the reduction of serum calcium concentration which followed administration by graded doses of [N-alpha-Propionyl-1,7-Di-Ala,Des-19-Leu] SCT and synthetic salmon calcitonin standard. Rats were divided into four groups of seven animals, and each group was assigned at random to a dose of standard or test solution. Low and high doses were chosen from the linear portion of the dose-response curve. For the salmon calcitonin standard, the values were 0.7 and 2.1 mcg. peptide/100 g. BW. Peptides were given by subcutaneous injection (0.2 ml/100 g. BW) and blood was withdrawn 1 hour later for serum calcium determination. Sera are processed and analyzed within two hours of collection. […]. Results were analyzed by a 2×2 parallel line assay [Gaddum, J. H., J. Pharm. Pharmacol., 6, 345 (1953)]. The standard salmon calcitonin used was independently determined to contain greater than 4,000 IU/mg.

[2] = test system: serum calcium concentration; settings: rat, in vivo, sc
Procedure: SCT and synthetic salmon calcitonin standard. Rats were divided into four groups of seven animals, and each group was assigned at random to a dose of standard or test solution. Low and high doses were chosen from the linear portion of the dose-response curve. For the salmon calcitonin standard, the values were 0.7 and 2.1 mcg. peptide/100 g. BW. Peptides were given by subcutaneous injection (0.2 ml/100 g. BW) and blood was withdrawn 1 hour later for serum calcium determination. Sera are processed and analyzed within two hours of collection. Results were analyzed within two hours of collection.

## Salmon calcitonin [standard salmon calcitonin]
[1]
  potency content of standard salmon calcitonin: greater than 4,000 IU/mg

## CCC(=O)N[C@@H](C)C(=O)N[C@@H](CO)C(=O)N[C@@H](CC(N)=O)C(=O)N[C@@H](CC(C)C)C(=O)N[C@@H](CO)C(=O)N[C@H](C(=O)N[C@@H](C)C(=O)N[C@H](C(=O)N[C@@H](CC(C)C)C(=O)NCC(=O)N[C@@H](CCCCN)C(=O)N[C@@H](CC(C)C)C(=O)N[C@@H](CO)C(=O)N[C@@H](CCC(N)=O)C(=O)N[C@@H](CCC(=O)O)C(=O)N[C@@H](CC(C)C)C(=O)N[C@@H](Cc1c[nH]cn1)C(=O)N[C@@H](CCCCN)C(=O)N[C@@H](CCC(N)=O)C(=O)N[C@H](C(=O)N[C@@H](Cc1ccc(O)cc1)C(=O)N1CCC[C@H]1C(=O)N[C@@H](CCCNC(=N)N)C(=O)N[C@H](C(=O)N[C@@H](CC(N)=O)C(=O)N[C@H](C(=O)NCC(=O)N[C@@H](CO)C(=O)NCC(=O)N[C@H](C(=O)N1CCC[C@H]1C(N)=O)[C@@H](C)O)[C@@H](C)O)[C@@H](C)O)[C@@H](C)O)C(C)C)[C@@H](C)O [N--Alpha-Propionyl, [N alpha-Propionyl, 1,7-Di-Alanine, Des-19-Leucine] salmon calcitonin] (Propionyl-ASNLSTAVLGKLSQELHKQTYPRTNTGSGTP-NH2)
[2]
  Potency: 7600 Iu/mg

## CCC(=O)N[C@@H](CO)C(=O)N[C@@H](CC(N)=O)C(=O)N[C@@H](CC(C)C)C(=O)N[C@@H](CO)C(=O)N[C@H](C(=O)N[C@@H](C)C(=O)N[C@H](C(=O)N[C@@H](CC(C)C)C(=O)NCC(=O)N[C@@H](CCCCN)C(=O)N[C@@H](CC(C)C)C(=O)N[C@@H](CO)C(=O)N[C@@H](CCC(N)=O)C(=O)N[C@@H](CCC(=O)O)C(=O)N[C@@H](CC(C)C)C(=O)N[C@@H](Cc1c[nH]cn1)C(=O)N[C@@H](CCCCN)C(=O)N[C@@H](CCC(N)=O)C(=O)N[C@H](C(=O)N[C@@H](Cc1ccc(O)cc1)C(=O)N1CCC[C@H]1C(=O)N[C@@H](CCCNC(=N)N)C(=O)N[C@H](C(=O)N[C@@H](CC(N)=O)C(=O)N[C@H](C(=O)NCC(=O)N[C@@H](CO)C(=O)NCC(=O)N[C@H](C(=O)N1CCC[C@H]1C(N)=O)[C@@H](C)O)[C@@H](C)O)[C@@H](C)O)[C@@H](C)O)C(C)C)[C@@H](C)O [Des-1-Amino] (Propionyl-SNLSTAVLGKLSQELHKQTYPRTNTGSGTP-NH2)
[2]
  Potency: 7300 Iu/mg

## CC(C)C[C@H](NC(=O)[C@H](CCCCN)NC(=O)CNC(=O)[C@H](CC(C)C)NC(=O)[C@@H](NC(=O)[C@H](C)NC(=O)[C@@H](NC(=O)[C@H](CO)NC(=O)[C@H](CC(C)C)NC(=O)[C@H](CC(N)=O)NC(=O)[C@H](CO)NC(=O)[C@H](C)N)[C@@H](C)O)C(C)C)C(=O)N[C@@H](CO)C(=O)N[C@@H](CCC(N)=O)C(=O)N[C@@H](CCC(=O)O)C(=O)N[C@@H](CC(C)C)C(=O)N[C@@H](Cc1c[nH]cn1)C(=O)N[C@@H](CCCCN)C(=O)N[C@@H](CCC(N)=O)C(=O)N[C@H](C(=O)N[C@@H](Cc1ccc(O)cc1)C(=O)N1CCC[C@H]1C(=O)N[C@@H](CCCNC(=N)N)C(=O)N[C@H](C(=O)N[C@@H](CC(N)=O)C(=O)N[C@H](C(=O)NCC(=O)N[C@@H](CO)C(=O)NCC(=O)N[C@H](C(=O)N1CCC[C@H]1C(N)=O)[C@@H](C)O)[C@@H](C)O)[C@@H](C)O)[C@@H](C)O [Parent, [1,7 Di-Alanine, Des-19-Leucine]Salmon Calcitonin] (H-ASNLSTAVLGKLSQELHKQTYPRTNTGSGTP-NH2)
[2]
  Potency: 7400 Iu/mg
